Reference: PubChem BioAssay (NCI)
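Values below derive from 48-hour exposures of cells grown in 96-well plates, with endpoints linearly interpolated between the two concentrations bracketing the appropriate inhibition level. The concentration for 50% growth inhibition is given as GI50. TGI marks complete inhibition of growth.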

What was measured:
Assay in all cases: NCI anticancer screen, dose series, 48 h
SK-MEL-5 melanoma = tested on: SK-MEL-5 melanoma
K-562 leukemia = tested on: K-562 leukemia
NCI-H226 lung = tested on: NCI-H226 lung
DU-145 prostate = tested on: DU-145 prostate
T-47D breast = tested on: T-47D breast
SF-268 CNS = tested on: SF-268 CNS
HCT-15 colon = tested on: HCT-15 colon
COLO 205 colon = tested on: COLO 205 colon
MALME-3M melanoma = tested on: MALME-3M melanoma
NCI/ADR-RES ovarian = tested on: NCI/ADR-RES ovarian
SF-295 CNS = tested on: SF-295 CNS
PC-3 prostate = tested on: PC-3 prostate
HT29 colon = tested on: HT29 colon
U251 CNS = tested on: U251 CNS
M14 melanoma = tested on: M14 melanoma
SK-MEL-28 melanoma = tested on: SK-MEL-28 melanoma
SR leukemia = tested on: SR leukemia
MDA-N = tested on: MDA-N
HL-60(TB) leukemia = tested on: HL-60(TB) leukemia

SMILES | TGI (SK-MEL-5 melanoma) | TGI (K-562 leukemia) | TGI (NCI-H226 lung) | GI50 (DU-145 prostate) | TGI (DU-145 prostate) | TGI (T-47D breast) | TGI (SF-268 CNS) | TGI (HCT-15 colon) | TGI (COLO 205 colon) | TGI (MALME-3M melanoma) | TGI (NCI/ADR-RES ovarian) | TGI (SF-295 CNS) | TGI (PC-3 prostate) | TGI (HT29 colon) | TGI (U251 CNS) | TGI (M14 melanoma) | TGI (SK-MEL-28 melanoma) | TGI (SR leukemia) | TGI (MDA-N) | TGI (HL-60(TB) leukemia)
CCOc1cc2c(cc1O)/C(=N/NS(=O)(=O)c1ccc(C)cc1)C[C@@H]1[C@@H]2CC[C@]2(C)[C@@H](O)CC[C@@H]12 | > 100 µM | > 100 µM | 68.7 µM | 14.9 µM | > 100 µM | > 100 µM | > 100 µM | > 100 µM | 17.4 µM | > 100 µM | > 100 µM | > 100 µM | > 100 µM | > 100 µM | > 100 µM | > 100 µM | > 100 µM | – | – | –
CS/C(C)=N/OC(=O)NCCCCNc1ccc(N=[N+]=[N-])cc1 | 38.6 µM | > 100 µM | > 100 µM | – | – | – | > 100 µM | > 100 µM | > 100 µM | > 100 µM | – | > 100 µM | – | > 100 µM | > 100 µM | > 100 µM | > 100 µM | > 100 µM | – | –
O=C1[C@@H]2C[C@@H](O)CN2C(=O)c2ccccc2N1CCCO | – | > 100 µM | > 100 µM | – | > 100 µM | > 100 µM | > 100 µM | > 100 µM | – | – | > 100 µM | > 100 µM | > 100 µM | > 100 µM | > 100 µM | > 100 µM | > 100 µM | – | > 100 µM | –
N#Cc1cc([N+](=O)[O-])ccc1NC(=O)/C(=N/N)C(C(=O)c1ccc(Cl)c(Cl)c1)C1OC(=O)c2ccccc21 (centres undefined) | > 100 µM | > 100 µM | > 100 µM | – | – | – | > 100 µM | > 100 µM | > 100 µM | > 100 µM | – | > 100 µM | – | > 100 µM | > 100 µM | – | > 100 µM | > 100 µM | – | –
Nc1ncnc2c1cnn2Cc1cn(COCC(O)CO)nn1 (centres undefined) | > 100 µM | – | – | – | > 100 µM | > 100 µM | 34.9 µM | > 100 µM | > 100 µM | – | > 100 µM | > 100 µM | > 100 µM | > 100 µM | > 100 µM | > 100 µM | > 100 µM | – | > 100 µM | > 100 µM
CCOc1ccc(NCC2CC/C(=C\c3ccc(O)cc3)C2=O)cc1 (centres undefined) | 33.8 µM | > 100 µM | > 61.2 µM | – | > 59.9 µM | 62.2 µM | 30.8 µM | 17.8 µM | 28.6 µM | 28.5 µM | 36.9 µM | > 54.6 µM | 30.7 µM | 33 µM | 30.7 µM | 36 µM | 29.2 µM | 5.13 µM | – | 5.33 µM
C[n+]1cccc2ccc(OC(=O)c3ccccc3)cc21 | > 100 µM | > 100 µM | > 100 µM | – | > 100 µM | > 100 µM | > 100 µM | > 100 µM | > 100 µM | > 100 µM | > 100 µM | > 100 µM | – | > 100 µM | – | > 100 µM | – | – | > 100 µM | –
Cc1ccc(S(=O)(=O)Nn2c(S)c(C#N)c(-c3ccc([N+](=O)[O-])cc3)c(C#N)c2=O)cc1 | 29.5 µM | 53.2 µM | > 100 µM | – | – | – | > 100 µM | 49.7 µM | 98.3 µM | > 100 µM | > 100 µM | > 100 µM | > 100 µM | > 100 µM | 98 µM | > 100 µM | > 100 µM | – | 73.1 µM | –
CC(C)(C)OC(=O)N(CCNS(=O)(=O)c1cccc2cnccc12)CCC(=O)ON1C(=O)CCC1=O | > 100 µM | > 100 µM | > 100 µM | – | > 100 µM | > 100 µM | > 100 µM | > 100 µM | > 100 µM | > 100 µM | > 100 µM | > 100 µM | > 100 µM | > 100 µM | > 100 µM | > 100 µM | > 100 µM | > 100 µM | – | –
C=CCCCC1CCCNC1=S (centres undefined) | > 100 µM | > 100 µM | > 100 µM | – | > 100 µM | > 100 µM | > 100 µM | > 100 µM | – | – | – | > 100 µM | > 100 µM | > 100 µM | > 100 µM | > 100 µM | > 100 µM | – | > 100 µM | –
CC(C)CCc1n[nH]c(=O)n1/N=C\c1ccccc1 | > 100 µM | > 100 µM | > 100 µM | – | > 100 µM | > 100 µM | > 100 µM | > 100 µM | > 100 µM | > 100 µM | > 100 µM | > 100 µM | – | > 100 µM | > 100 µM | > 100 µM | > 100 µM | – | > 100 µM | –
COc1cccc2nc3cc(C)c(C)cc3nc12 | > 100 µM | > 100 µM | > 100 µM | – | – | – | > 100 µM | > 100 µM | > 100 µM | > 100 µM | – | > 100 µM | – | > 100 µM | > 100 µM | > 100 µM | > 100 µM | > 100 µM | – | > 100 µM
